Measured values: ChEMBL document CHEMBL5375994, “Advances in Development of Selective Antitumor Inhibitors That Target PARP-1” (J Med Chem, 2023)
pIC50: −log10 of the molar value.

What was measured:
[1] = biological target: Poly [ADP-ribose] polymerase 2 (Homo sapiens, UniProt Q9UGN5); experiment: Inhibition of PARP-2 (unknown origin)
[2] = biological target: Poly [ADP-ribose] polymerase 1 (Homo sapiens, UniProt P09874); experiment: Inhibition of human recombinant PARP-1
Chain of Poly [ADP-ribose] polymerase 1 (P09874 whole entry): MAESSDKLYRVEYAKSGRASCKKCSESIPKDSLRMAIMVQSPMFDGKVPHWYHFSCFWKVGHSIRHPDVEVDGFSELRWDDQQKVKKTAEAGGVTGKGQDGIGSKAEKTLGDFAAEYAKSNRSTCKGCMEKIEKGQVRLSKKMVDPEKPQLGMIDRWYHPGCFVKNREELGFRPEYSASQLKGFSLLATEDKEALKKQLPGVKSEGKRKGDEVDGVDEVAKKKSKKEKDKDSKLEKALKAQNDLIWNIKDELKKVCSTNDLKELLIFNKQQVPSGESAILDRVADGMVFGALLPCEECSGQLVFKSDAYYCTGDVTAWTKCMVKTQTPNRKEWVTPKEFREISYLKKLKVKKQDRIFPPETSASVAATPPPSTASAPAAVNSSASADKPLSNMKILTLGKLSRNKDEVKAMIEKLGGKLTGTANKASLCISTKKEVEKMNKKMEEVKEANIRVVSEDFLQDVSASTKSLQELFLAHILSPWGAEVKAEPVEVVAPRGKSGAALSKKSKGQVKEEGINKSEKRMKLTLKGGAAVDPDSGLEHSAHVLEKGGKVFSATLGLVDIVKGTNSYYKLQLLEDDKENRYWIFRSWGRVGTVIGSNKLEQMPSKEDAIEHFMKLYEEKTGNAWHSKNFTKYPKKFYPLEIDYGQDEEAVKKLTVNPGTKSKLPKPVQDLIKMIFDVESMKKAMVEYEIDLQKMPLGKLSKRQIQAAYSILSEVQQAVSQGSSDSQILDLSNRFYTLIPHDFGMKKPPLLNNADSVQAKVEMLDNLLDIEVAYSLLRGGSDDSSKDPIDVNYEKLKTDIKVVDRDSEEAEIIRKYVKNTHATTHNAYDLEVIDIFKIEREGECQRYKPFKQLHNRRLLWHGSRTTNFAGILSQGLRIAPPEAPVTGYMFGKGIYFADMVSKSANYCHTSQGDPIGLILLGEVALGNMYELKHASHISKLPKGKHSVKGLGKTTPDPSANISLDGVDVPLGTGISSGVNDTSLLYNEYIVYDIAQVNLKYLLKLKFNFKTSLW

Chain of Poly [ADP-ribose] polymerase 2 (Q9UGN5 whole entry): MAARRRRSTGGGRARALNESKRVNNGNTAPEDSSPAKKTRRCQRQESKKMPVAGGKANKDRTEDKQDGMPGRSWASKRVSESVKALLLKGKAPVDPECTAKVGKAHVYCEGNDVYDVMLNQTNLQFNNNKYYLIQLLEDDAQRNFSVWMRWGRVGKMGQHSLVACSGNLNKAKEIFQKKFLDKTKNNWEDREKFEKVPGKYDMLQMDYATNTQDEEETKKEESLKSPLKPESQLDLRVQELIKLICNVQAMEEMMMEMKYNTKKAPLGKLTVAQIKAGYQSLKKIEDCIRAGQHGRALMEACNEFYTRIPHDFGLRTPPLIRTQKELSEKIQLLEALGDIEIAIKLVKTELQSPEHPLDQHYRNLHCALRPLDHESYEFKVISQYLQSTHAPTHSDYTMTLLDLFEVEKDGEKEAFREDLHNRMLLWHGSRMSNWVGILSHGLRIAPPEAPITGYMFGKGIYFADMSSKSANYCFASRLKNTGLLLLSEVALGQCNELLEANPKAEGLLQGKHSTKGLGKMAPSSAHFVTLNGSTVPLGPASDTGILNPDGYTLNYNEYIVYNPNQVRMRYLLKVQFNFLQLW

| Structure (SMILES) | pIC50 [1] | pIC50 [2] |
| --- | --- | --- |
| O=c1[nH]c(CCCN2CCC(c3ccccc3)CC2)nc2ccccc12 | 6.22 | 7.68 |
| O=c1[nH]c(CCCN2CCC(c3ccccc3)CC2)nc2c(Cl)cccc12 | 6.21 | 7.64 |
| O=c1[nH]c(CCCN2CCC(c3ccc(F)cc3)CC2)nc2c(Cl)cccc12 | 6.30 | 7.89 |
| N#Cc1ccc(C2CCN(CCCc3nc4c(Cl)cccc4c(=O)[nH]3)CC2)cc1 | 7.06 | 8.52 |
| Cc1cccc2c(=O)[nH]c(CCCN3CCC(c4ccc(F)cc4)CC3)nc12 | 6.78 | 7.80 |
| O=c1[nH]c(CCCN2CCC(c3ccccc3)CC2)nc2cccc(Cl)c12 | 6.20 | 7.17 |
| O=c1[nH]c(CCCN2CCN(c3ccccc3)CC2)nc2cccc(Cl)c12 | 6.52 | 7.96 |
